Experimental data taken from patent US20260007727A1, “DRUG THAT PROMOTES HEMOSTASIS” (BIOMEDIZINISCHE FORSCHUNG & BIO-PRODUKTE GMBH, priority 2022, published 2026).
Values joined by “and” are separate entries in the source; they are usually repeats but may differ in a detail not shown here. Equal entries are not always repeated.

Tested on: rivaroxaban rabbit model
Assay: reversal of anticoagulation in a rivaroxaban rabbit model (claw cut)
Format: in vivo, New Zealand White rabbits
Experimental: In doing so, anesthetized New Zealand White rabbits were treated with the factor Xa inhibitor rivaroxaban to achieve anticoagulation. The increased tendency to bleed associated with anticoagulation was determined by cutting the claws. Upon intravenous administration of prethrombin-1, the blood loss was measured again after the claws had been cut.

O=C(NC[C@H]1CN(c2ccc(N3CCOCC3=O)cc2)C(=O)O1)c1ccc(Cl)s1 [rivaroxaban]
Blood loss after rivaroxaban (rivaroxaban 7 μg/kg body weight): 22.3 mg
Blood loss after rivaroxaban (rivaroxaban 14 μg/kg body weight): 11.3 mg
Blood loss after rivaroxaban (rivaroxaban 35 μg/kg body weight): 30.4 mg
Blood loss after rivaroxaban (rivaroxaban 70 μg/kg body weight, individual rabbits): 165.0 mg and 98.7 mg and 20.8 mg and 51.8 mg and 77.4 mg and 108.5 mg and 51.2 mg
